From PMC6270991, “Design and Synthesis of Thiazolo[5,4-f]quinazolines as DYRK1A Inhibitors, Part I” (Molecules, 2014)
Read-outs that look alike come from different tables or passages of the source.

Columns and labels:
[1] = target: DYRK1A (Rattus norvegicus, UniProt Q63470); assay: DYRK1A in vitro kinase assay (33P-ATP, Woodtide substrate); format: biochemical
Experimental: (§1) Buffer A: MgCl2 (10 mM), 1 mM ethylene glycol-bis(2-aminoethylether)-N,N,N',N'-tetraacetic acid (EGTA), 1 mM dithiothreitol (DTT), 25 mM Tris-HCl pH 7.5, 50 μg heparin/mL.
(§2) Controls were performed with appropriate dilutions of dimethylsulfoxide (DMSO). IC50 values were calculated from dose-response curves established by Sigma-Plots. The GSK-3, CK1, DYRK1A and CLK1 peptide substrates were obtained from Proteogenix (Oberhausbergen, France).
(§3) CDK5/p25. (Human, recombinant) was prepared as previously described. […] ATP (3000 Ci/mmol; 10 mCi/mL) in a final volume of 30 μL. After 30 min incubation at 30 °C, 25 μL aliquots of supernatant were spotted onto sheets of Whatman P81 phosphocellulose paper, and 20 s later, the filters were washed eight times (for at least 5 min each time) in a solution of 10 mL phosphoric acid/L of water. The wet filters were counted in the presence of 1 mL ACS (Amersham) scintillation fluid.

[2] = target: CK1δ/ε; assay: CK1δ/ε in vitro kinase assay (33P-ATP, CK1-specific peptide substrate); format: biochemical, Porcine; settings: 15 μM ATP, 30 min at 30 °C, triplicate; <50% inhibition at 10 µM reported as >10
Experimental: as §2, §3
CK1δ/ε. (Porcine brain, native) was assayed as described for CDK5/p25, but using the CK1-specific peptide substrate […]pSAYSITA [23].

[3] = target: T1, CDK5/p25 (Homo sapiens, UniProt Q00535); assay: CDK5/p25 in vitro kinase assay (33P-ATP, histone H1); format: biochemical
T1 construct: made in house
Experimental: as §1, §2, §3

[4] = target: GSK-3α/β; assay: GSK-3α/β in vitro kinase assay (33P-ATP, GS-1 peptide); format: biochemical, Porcine; settings: 15 μM ATP, 30 min at 30 °C, triplicate; <50% inhibition at 10 µM reported as >10; read-out: GSK3 IC50
Experimental: as §1, §2, §3
GSK-3α/β. (Porcine brain, native) was assayed as described for CDK5/p25, but in buffer A and using a GSK-3 specific substrate (GS-1: […]pSEDEEE) (pS stands for phosphorylated serine).

[5] = 15 μM ATP, 30 min at 30 °C, triplicate, <50% inhibition at 10 µM reported as >10
[6] = 15 μM ATP, 30 min at 30 °C, triplicate, <50% inhibition at 10 µM reported as >10, read-out: CDK5 IC50

T1 sequence (Q00535 whole entry): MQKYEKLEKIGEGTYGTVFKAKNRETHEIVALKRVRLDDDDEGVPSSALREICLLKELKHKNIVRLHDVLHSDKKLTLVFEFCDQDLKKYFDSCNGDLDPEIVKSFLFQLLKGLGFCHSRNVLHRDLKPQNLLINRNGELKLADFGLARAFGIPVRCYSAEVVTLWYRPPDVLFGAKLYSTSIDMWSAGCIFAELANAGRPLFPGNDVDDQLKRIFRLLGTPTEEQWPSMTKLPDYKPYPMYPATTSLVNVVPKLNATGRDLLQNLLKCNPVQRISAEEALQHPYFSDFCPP
T1 sequence (Q15078 99-307 partner limits assumed): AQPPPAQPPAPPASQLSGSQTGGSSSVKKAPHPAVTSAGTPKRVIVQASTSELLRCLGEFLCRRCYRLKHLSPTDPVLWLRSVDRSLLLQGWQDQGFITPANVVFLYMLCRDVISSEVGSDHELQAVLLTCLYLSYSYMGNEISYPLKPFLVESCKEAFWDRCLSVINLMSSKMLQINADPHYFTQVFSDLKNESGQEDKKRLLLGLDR

Compound	IC50 [1]	IC50 [2]	IC50 ([3]; read-out: CDK5 IC50)	IC50 [4]	IC50 [3]	IC50 [1, 5]	IC50 [3, 6]
COc1ccc(Nc2ncnc3ccc4nc(C(=N)NCCN5CCOCC5)sc4c23)cc1 [Compound 7a, 9-(4-Methoxyphenylamino)-N-(2-morpholinoethyl)thiazolo[5,4-f]quinazoline-2-carboximidamide]	> 10 µM	> 10 µM	> 10 µM	1.1 µM	–	–	–
COc1ccc(Nc2ncnc3ccc4nc(C(=N)NCCN5CCCCC5)sc4c23)cc1 [Compound 7b, 9-(4-Methoxyphenylamino)-N-(2-(piperidin-1-yl)ethyl)thiazolo[5,4-f]quinazoline-2-carboximidamide]	> 10 µM	> 10 µM	> 10 µM	2.5 µM	–	–	–
COc1ccc(Nc2ncnc3ccc4nc(C(=N)NCCN5CCCC5)sc4c23)cc1 [Compound 7c, 9-(4-Methoxyphenylamino)-N-(2-(pyrrolidin-1-yl)ethyl)thiazolo[5,4-f]quinazoline-2-carboximidamide]	> 10 µM	> 10 µM	> 10 µM	2 µM	–	–	–
COc1ccc(Nc2ncnc3ccc4nc(C(=N)NCCN(C)C)sc4c23)cc1 [Compound 7d, N-(2-(Dimethylamino)ethyl)-9-(4-methoxyphenylamino)thiazolo[5,4-f]quinazoline-2-carboximidamide]	> 10 µM	> 10 µM	> 10 µM	> 10 µM	–	–	–
CCN(CC)CCNC(=N)c1nc2ccc3ncnc(Nc4ccc(OC)cc4)c3c2s1 [Compound 7e, N-(2-(Diethylamino)ethyl)-9-(4-methoxyphenylamino)thiazolo[5,4-f]quinazoline-2-carboximidamide]	4 µM	> 10 µM	> 10 µM	1.3 µM	–	–	–
COc1ccc(Nc2ncnc3ccc4nc(C(=N)NCc5ccccc5)sc4c23)cc1 [Compound 7f, N-Benzyl-9-(4-methoxyphenylamino)thiazolo[5,4-f]quinazoline-2-carboximidamide]	8 µM	> 10 µM	> 10 µM	2 µM	–	–	–
COc1ccc(Nc2ncnc3ccc4nc(C(=N)N(C)C)sc4c23)cc1 [Compound 7g, 9-(4-Methoxyphenylamino)-N,N-dimethylthiazolo[5,4-f]quinazoline-2-carboximidamide]	0.7 µM	> 10 µM	> 10 µM	1.1 µM	–	–	–
COc1ccc(Nc2ncnc3ccc4nc(C(N)=O)sc4c23)cc1 [Compound 7h, 9-(4-Methoxyphenylamino)thiazolo[5,4-f]quinazoline-2-carboxamide]	–	> 10 µM	–	0.3 µM	> 10 µM	–	–
COC(=N)c1nc2ccc3ncnc(Nc4ccc(OC)cc4)c3c2s1 [Compound 7i, Methyl 9-(4-methoxyphenylamino)thiazolo[5,4-f]quinazoline-2-carbimidate]	–	> 10 µM	> 10 µM	0.2 µM	–	–	–
N=C(NCCN1CCOCC1)c1nc2ccc3ncnc(Nc4ccc5c(c4)OCO5)c3c2s1 [Compound 8a, 9-(Benzo[d][1,3]dioxol-5-ylamino)-N-(2-morpholinoethyl)thiazolo[5,4-f]quinazoline-2-carboximidamide]	2.2 µM	> 10 µM	> 10 µM	0.97 µM	–	–	–
N=C(NCCN1CCCCC1)c1nc2ccc3ncnc(Nc4ccc5c(c4)OCO5)c3c2s1 [Compound 8b, 9-(Benzo[d][1,3]dioxol-5-ylamino)-N-(2-(piperidin-1-yl)ethyl)thiazolo[5,4-f]quinazoline-2-carboximi-damide]	–	> 10 µM	–	1.1 µM	–	2 µM	> 10 µM
N=C(NCCN1CCCC1)c1nc2ccc3ncnc(Nc4ccc5c(c4)OCO5)c3c2s1 [Compound 8c, 9-(Benzo[d][1,3]dioxol-5-ylamino)-N-(2-(pyrrolidin-1-yl)ethyl)thiazolo[5,4-f]quinazoline-2-carboxi-midamide]	–	> 10 µM	–	0.36 µM	–	1.1 µM	> 10 µM
CN(C)CCNC(=N)c1nc2ccc3ncnc(Nc4ccc5c(c4)OCO5)c3c2s1 [Compound 8d, 9-(Benzo[d][1,3]dioxol-5-ylamino)-N-(2-(dimethylamino)ethyl)thiazolo[5,4-f]quinazoline-2-carboxi-midamide]	–	> 10 µM	–	0.25 µM	–	1.05 µM	> 10 µM
CCN(CC)CCNC(=N)c1nc2ccc3ncnc(Nc4ccc5c(c4)OCO5)c3c2s1 [Compound 8e, 9-(Benzo[d][1,3]dioxol-5-ylamino)-N-(2-(diethylamino)ethyl)thiazolo[5,4-f]quinazoline-2-carboxi-midamide]	–	> 10 µM	–	0.8 µM	–	6.5 µM	> 10 µM
N=C(NCc1ccccc1)c1nc2ccc3ncnc(Nc4ccc5c(c4)OCO5)c3c2s1 [Compound 8f, 9-(Benzo[d][1,3]dioxol-5-ylamino)-N-benzylthiazolo[5,4-f]quinazoline-2-carboximidamide]	> 10 µM	> 10 µM	> 10 µM	2 µM	–	–	–
NC(=O)c1nc2ccc3ncnc(Nc4ccc5c(c4)OCO5)c3c2s1 [Compound 8h, 9-(Benzo[d][1,3]dioxol-5-ylamino)thiazolo[5,4-f]quinazoline-2-carboxamide]	0.8 µM	> 10 µM	> 10 µM	0.77 µM	–	–	–
COC(=N)c1nc2ccc3ncnc(Nc4ccc5c(c4)OCO5)c3c2s1 [Compound 8i, Methyl 9-(benzo[d][1,3]dioxol-5-ylamino)thiazolo[5,4-f]quinazoline-2-carbimidate]	0.047 µM	> 10 µM	> 10 µM	0.66 µM	–	–	–
N=C(NCCN1CCOCC1)c1nc2ccc3ncnc(Nc4ccc(Br)cc4F)c3c2s1 [Compound 9a, 9-(4-Bromo-2-fluorophenylamino)-N-(2-morpholinoethyl)thiazolo[5,4-f]quinazoline-2-carboximid-amide]	–	> 10 µM	–	1.8 µM	–	> 10 µM	> 10 µM
N=C(NCCN1CCCCC1)c1nc2ccc3ncnc(Nc4ccc(Br)cc4F)c3c2s1 [Compound 9b, 9-(4-Bromo-2-fluorophenylamino)-N-(2-(piperidin-1-yl)ethyl)thiazolo[5,4-f]quinazoline-2-carboxi-midamide]	–	> 10 µM	–	0.53 µM	–	> 10 µM	> 10 µM
N=C(NCCN1CCCC1)c1nc2ccc3ncnc(Nc4ccc(Br)cc4F)c3c2s1 [Compound 9c, 9-(4-Bromo-2-fluorophenylamino)-N-(2-(pyrrolidin-1-yl)ethyl)thiazolo[5,4-f]quinazoline-2-carboxi-midamide]	–	> 10 µM	–	2.2 µM	–	> 10 µM	> 10 µM
CCN(CC)CCNC(=N)c1nc2ccc3ncnc(Nc4ccc(Br)cc4F)c3c2s1 [Compound 9e, 9-(4-Bromo-2-fluorophenylamino)-N-(2-(diethylamino)ethyl)thiazolo[5,4-f]quinazoline-2-carboxi-midamide]	–	> 10 µM	–	2.1 µM	–	> 10 µM	> 10 µM
N=C(NCc1ccccc1)c1nc2ccc3ncnc(Nc4ccc(Br)cc4F)c3c2s1 [Compound 9f, N-Benzyl-9-(4-bromo-2-fluorophenylamino)thiazolo[5,4-f]quinazoline-2-carboximidamide]	> 10 µM	> 10 µM	> 10 µM	1.8 µM	–	–	–
CN(C)C(=N)c1nc2ccc3ncnc(Nc4ccc(Br)cc4F)c3c2s1 [Compound 9g]	–	> 10 µM	–	0.6 µM	–	0.27 µM	> 10 µM
NC(=O)c1nc2ccc3ncnc(Nc4ccc(Br)cc4F)c3c2s1 [Compound 9h, 9-(4-Bromo-2-fluorophenylamino)thiazolo[5,4-f]quinazoline-2-carboxamide]	0.67 µM	> 10 µM	> 10 µM	0.13 µM	–	–	–
COC(=N)c1nc2ccc3ncnc(Nc4ccc(Br)cc4F)c3c2s1 [Compound 9i, Methyl 9-(4-bromo-2-fluorophenylamino)thiazolo[5,4-f]quinazoline-2-carbimidate]	–	> 10 µM	> 10 µM	0.16 µM	–	–	–
NC(=O)c1nc2ccc3ncnc(Nc4ccc(F)c(Cl)c4)c3c2s1 [Compound 10h, 9-(3-Chloro-4-fluorophenylamino)thiazolo[5,4-f]quinazoline-2-carboxamide]	–	> 10 µM	–	0.66 µM	> 10 µM	–	–
COC(=N)c1nc2ccc3ncnc(Nc4ccc(F)c(Cl)c4)c3c2s1 [Compound 10i, Methyl 9-(3-chloro-4-fluorophenylamino)thiazolo[5,4-f]quinazoline-2-carbimidate]	–	–	> 10 µM	–	–	–	–
